Reference: patent US20240350642A1, “SUSTAINED RELEASE DOSAGE FORMS FOR LOW SOLUBILITY COMPOUNDS AND METHODS FOR PREPARING OF THESE SUSTAINED RELEASE DOSAGE FORMS” (priority 2023, published 2024)
Entries after “also recorded” stand apart in the source; their conditions may differ.

How the values were obtained:
Type in all cases: physicochemical
[1] = Solubility of the API in aqueous media
Procedure: A different aqueous media may be selected if required for stability reasons of the API; e.g., decompensation of the at pH 6.8 or change of the polymorph of the API, e.g. salt formation of a base under low pH conditions and vis versa base formation of API with a strong acid at higher pH values. Preferably, aqueous conditions are selected to maintain an unchanged API polymorph. The amount dissolved is determined either by measuring the concentration at the defined time points and the amount dissolved is plotted versus time. The amount at each time point is determined by a suitable assay method, e.g., UV for API with sufficient extinction coefficient or HPLC with low extinction coefficient.

[2] = Solubility of Cannabidiol in USP dissolution apparatus before and after adding HP-β-Cyclodextrin (experiment 12)
Procedure: FIGS. 5A and 5B refer to a method to determine the solubility of low soluble API and determination of the solubility enhancing effect of an API: Cyclodextrin complex. Accurately weighted amounts of the low soluble API, higher than its intrinsic solubility in the volume and pH of the aqueous media, is added to a defined volume into a vessel of the standard dissolution test apparatus 1 or 2 as defined in US Pharmacopeia (chapter <711> “Dissolution”) at pH conditions suitable for the API as explained above and at standard temperature conditions at the site of absorption e.g., 37° C. and paddle rotation of 50 rpm, with either water or standard aqueous media at pH 1, pH 2, water or buffer pH 6.8. It is to be assured by visual check that the API is not or not fully dissolved to ensure that the added amount is higher than the intrinsic solubility of the API. The dissolution of the API is checked for between 30 Min. and 3 hours, and the amount dissolved is measured with a suitable assay method like UV or HPLC and plotted against time. […]
An accurately weighted amount of Cannabidiol was dissolved in ethanol resulting in a solution containing 5 mg/ml. […] The amount of dissolved CBD was monitored. […]

[3] = Solubility of Ketoconazole in USP dissolution apparatus before and after adding HP-β-Cyclodextrin (experiment 13)
Procedure: FIGS. 5A and 5B refer to a method to determine the solubility of low soluble API and determination of the solubility enhancing effect of an API: Cyclodextrin complex. Accurately weighted amounts of the low soluble API, higher than its intrinsic solubility in the volume and pH of the aqueous media, is added to a defined volume into a vessel of the standard dissolution test apparatus 1 or 2 as defined in US Pharmacopeia (chapter <711> “Dissolution”) at pH conditions suitable for the API as explained above and at standard temperature conditions at the site of absorption e.g., 37° C. and paddle rotation of 50 rpm, with either water or standard aqueous media at pH 1, pH 2, water or buffer pH 6.8. It is to be assured by visual check that the API is not or not fully dissolved to ensure that the added amount is higher than the intrinsic solubility of the API. The dissolution of the API is checked for between 30 Min. and 3 hours, and the amount dissolved is measured with a suitable assay method like UV or HPLC and plotted against time. After the initial phase at least a 100-time overage of the desired complex forming Cyclodextrin, in a suitable complex forming ratio with the API, is added to the dissolution vessel and the dissolution determination is continued for up to 24 hours until the amount of dissolved API reaches a plateau. […]

Row | SMILES | solubility in aqueous media (words) ([1]; any pH or pH not given) | solubility in aqueous media (words) ([1]; any pH or pH not given, listed as Cannabidiol) | solubility of CBD after overage of HP-β-Cyclodextrin ([2]; 500 ml aqueous media pH 2) | solubility of CBD before Cyclodextrin addition ([2]; 500 ml aqueous media pH 2, added as solution in ethanol) | solubility of Ketoconazole after overage of HP-β-Cyclodextrin ([3]; 500 ml aqueous media pH 6.8) | solubility of Ketoconazole before Cyclodextrin addition ([3]; 500 ml aqueous media pH 6.8, added as powder) | solubility in aqueous media (words) ([1]; pH 2) | solubility in aqueous media (words) ([1]; pH 6.8)
1 | C=C(C)[C@@H]1CCC(C)=C[C@H]1c1c(O)cc(CCCCC)cc1O [CBD, Cannabidiol] | very insoluble | insoluble | significantly increased | almost insoluble |  |  |  | 
2 | CC(=O)N1CCN(c2ccc(OCC3COC(Cn4ccnc4)(c4ccc(Cl)cc4Cl)O3)cc2)CC1 (centres unmarked) [Ketoconazole] |  |  |  |  | significantly increased | visibly insoluble | low soluble | very insoluble; also recorded: less soluble; also recorded: very low soluble
